Consider one compound from article PMC5739597, “Discovery and evaluation of triple inhibitors of VEGFR-2, TIE-2 and EphB4 as anti-angiogenic and anti-cancer agents” (Oncotarget, 2017).

The target of test [1] is VEGFR-2 (Homo sapiens, UniProt P35968). Put plainly: ADP-Glo in vitro RTK inhibition assay, VEGFR-2. It counts as biochemical. The conditions noted are these: ATP 50 μM. As for the experimental part: (§1) In order to validate the direct effect of title compounds on VEGFR-2, Tie-2, and EphB4 kinases, we performed in vitro assay using the ADP-Glo Kinase Assay Kit (Promega, Wisconsin, USA).
(§2) The kinase assay was performed in a reaction mixture of final volume of 10 μL. […] The plate was incubated at 30°C for 1 h. After the plate was cooled at room temperature for 5 min, 5 μL of ADP-Glo reagent was added into each well to stop the reaction and consume the remaining […] within 40 min. At the end, 10 μL of kinase detection reagent was added into the well and incubated for 30 min to produce a luminescence signal. […] The assay plate was incubated at 30°C for 4 h. After the plate was cooled at room temperature for 5 min, 5 μL of ADP-Glo reagent was added into each well to stop the reaction and consume the remaining […] within 1 h. At the end, 10 μL of kinase detection reagent was added into each well and incubated for 30 min to produce a luminescence signal. The luminescence was read by VICTOR-X multi-label plate reader.
Background: In ADP-Glo the light output rises with the ADP produced.

Test [2] has as its target T1, EphB4 (Homo sapiens, UniProt P54760).
T1 sequence (P54760 16-987): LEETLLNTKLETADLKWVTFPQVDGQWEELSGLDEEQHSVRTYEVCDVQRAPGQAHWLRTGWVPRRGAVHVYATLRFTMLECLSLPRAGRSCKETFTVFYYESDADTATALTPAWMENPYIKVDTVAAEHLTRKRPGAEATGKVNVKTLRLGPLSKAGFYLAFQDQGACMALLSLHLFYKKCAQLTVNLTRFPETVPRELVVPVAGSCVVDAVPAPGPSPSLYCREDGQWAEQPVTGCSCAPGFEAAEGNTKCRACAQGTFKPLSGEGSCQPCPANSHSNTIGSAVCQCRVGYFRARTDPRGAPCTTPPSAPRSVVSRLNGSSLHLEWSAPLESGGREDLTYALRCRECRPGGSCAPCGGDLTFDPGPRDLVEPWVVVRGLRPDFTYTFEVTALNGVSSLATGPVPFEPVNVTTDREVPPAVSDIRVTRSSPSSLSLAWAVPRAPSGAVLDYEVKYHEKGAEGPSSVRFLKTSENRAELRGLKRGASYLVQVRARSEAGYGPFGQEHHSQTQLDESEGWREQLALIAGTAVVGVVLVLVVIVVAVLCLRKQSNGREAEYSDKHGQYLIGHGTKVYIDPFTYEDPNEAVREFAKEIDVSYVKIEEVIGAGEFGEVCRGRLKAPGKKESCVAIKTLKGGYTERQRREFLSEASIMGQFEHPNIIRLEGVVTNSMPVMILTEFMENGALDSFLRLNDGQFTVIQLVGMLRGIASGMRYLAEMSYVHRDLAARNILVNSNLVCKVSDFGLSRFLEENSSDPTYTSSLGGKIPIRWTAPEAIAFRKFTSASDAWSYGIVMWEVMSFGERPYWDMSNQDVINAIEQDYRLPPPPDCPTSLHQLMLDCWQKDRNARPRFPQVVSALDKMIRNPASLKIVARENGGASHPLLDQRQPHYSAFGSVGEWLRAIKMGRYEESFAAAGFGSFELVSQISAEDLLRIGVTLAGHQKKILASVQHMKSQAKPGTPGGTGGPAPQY
Nature of the test: ADP-Glo in vitro RTK inhibition assay, EphB4. Type of test: biochemical. The conditions noted are these: ATP 50 μM. As to the method:
as §1, §2

For test [3], the target named is FGFR-4 (Homo sapiens, UniProt P22455). Nature of the test: Kinase-Glo Plus RTK selectivity assay, FGFR-4. It counts as biochemical. The conditions noted are these: 10 μM ATP. As to the method:
(§3) A 50 μL reaction mixture contains 40 mM Tris, pH 7.4, 10 mM MgCl2, 0.1 mg/ml BSA, 1 mM DTT, 10 μM ATP, kinase and substrate (0.2 mg/mL Poly(Glu, Tyr)/10 μM ATP). The test compounds were diluted in 10% DMSO and 5 μL of the dilution was added to a 50 μL reaction so that the final concentration of DMSO is 1% in all of reactions. The assay was performed using Kinase-Glo Plus luminescence kinase assay kit. It measures kinase activity by quantitating the amount of ATP remaining in solution following a kinase reaction. The luminescent signal from the assay is correlated with the amount of ATP present and is inversely correlated with the amount of kinase activity. The IC50 values were calculated using nonlinear regression with normalized dose−response fit using Prism GraphPad software.
For orientation: In Kinase-Glo more light means more ATP remaining.

For test [4], the target named is B-Raf (Homo sapiens, UniProt P15056). Nature of the test: Kinase-Glo Plus RTK selectivity assay, B-Raf. Type of test: biochemical. The conditions noted are these: 10 μM ATP. As for the experimental part:
as §3

The subject of test [5] is human hepatic cancer cell lines (7721). Put plainly: Anti-proliferative MTT assay, 7721. The conditions noted are these: 48 h. It counts as cell-based. As for the experimental part:
These RTKs play critical roles in the proliferation of various cancers. Therefore, RTKs inhibition generally translate well into anti-proliferation activity.
Exponentially growing cells were harvested and plated in 96-well plates at a concentration of 1×10^4 cells/well per well, and then were incubated at 37°C for 24 h. […] Subsequently, 22 μL fresh MTT (5 mg/mL) was added to each well and incubated at 37°C for 4 h. […] DMSO was added to each well after supernatant was discarded. Absorbance values were determined by a microplate reader (Bio-Rad Instruments) at 490 nm. The IC50 values were calculated according to inhibition ratios.
Background: Formazan colour is commonly taken as a measure of viable cells.

The test system of test [6] is VEGFR-2. Put plainly: Western blot of VEGFR-2 level and phosphorylation in EA.hy926 cells. Type of test: cell-based, human. As for the experimental part: The expression and phosphorylation of VEGFR-2 in EA.hy926 cells were assessed using western blot analysis with various antibodies. […] Cell lysates containing equal amounts of protein were separated by SDS polyacrylamide gel electrophoresis and transferred to polyvinylidene difluoride membranes. After being blocked in 5% nonfat milk in Tris-buffered saline with 0.1% Tween 20, pH 7.6, the membranes were incubated with the appropriate primary antibodies at 4°C overnight and then exposed to secondary antibodies for 2 h at room temperature. Immunoreactive proteins were visualized using the enhanced chemiluminescence system from Pierce Chemical.

Structures are written as SMILES.

Chain of B-Raf (P15056 whole entry, species assumed): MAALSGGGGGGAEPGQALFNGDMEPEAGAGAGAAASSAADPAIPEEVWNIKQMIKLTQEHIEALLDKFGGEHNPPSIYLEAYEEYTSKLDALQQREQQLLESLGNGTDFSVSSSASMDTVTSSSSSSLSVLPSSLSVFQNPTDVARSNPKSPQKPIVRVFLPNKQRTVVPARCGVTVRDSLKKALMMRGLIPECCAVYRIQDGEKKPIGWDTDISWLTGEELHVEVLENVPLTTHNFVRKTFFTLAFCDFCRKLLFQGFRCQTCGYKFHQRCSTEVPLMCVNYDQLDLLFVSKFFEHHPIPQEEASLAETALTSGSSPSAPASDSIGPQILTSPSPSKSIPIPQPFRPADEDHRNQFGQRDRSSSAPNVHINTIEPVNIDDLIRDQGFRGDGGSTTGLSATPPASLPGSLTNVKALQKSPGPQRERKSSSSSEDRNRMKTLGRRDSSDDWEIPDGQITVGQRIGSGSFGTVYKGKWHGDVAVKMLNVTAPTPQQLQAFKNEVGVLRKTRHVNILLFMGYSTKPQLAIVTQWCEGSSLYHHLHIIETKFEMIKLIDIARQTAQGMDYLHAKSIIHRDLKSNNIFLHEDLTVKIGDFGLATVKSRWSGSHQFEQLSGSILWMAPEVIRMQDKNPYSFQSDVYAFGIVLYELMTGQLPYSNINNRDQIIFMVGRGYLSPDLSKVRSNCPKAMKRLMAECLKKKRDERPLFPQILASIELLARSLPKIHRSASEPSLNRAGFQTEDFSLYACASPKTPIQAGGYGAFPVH
Chain of FGFR-4 (P22455 22-802, species assumed): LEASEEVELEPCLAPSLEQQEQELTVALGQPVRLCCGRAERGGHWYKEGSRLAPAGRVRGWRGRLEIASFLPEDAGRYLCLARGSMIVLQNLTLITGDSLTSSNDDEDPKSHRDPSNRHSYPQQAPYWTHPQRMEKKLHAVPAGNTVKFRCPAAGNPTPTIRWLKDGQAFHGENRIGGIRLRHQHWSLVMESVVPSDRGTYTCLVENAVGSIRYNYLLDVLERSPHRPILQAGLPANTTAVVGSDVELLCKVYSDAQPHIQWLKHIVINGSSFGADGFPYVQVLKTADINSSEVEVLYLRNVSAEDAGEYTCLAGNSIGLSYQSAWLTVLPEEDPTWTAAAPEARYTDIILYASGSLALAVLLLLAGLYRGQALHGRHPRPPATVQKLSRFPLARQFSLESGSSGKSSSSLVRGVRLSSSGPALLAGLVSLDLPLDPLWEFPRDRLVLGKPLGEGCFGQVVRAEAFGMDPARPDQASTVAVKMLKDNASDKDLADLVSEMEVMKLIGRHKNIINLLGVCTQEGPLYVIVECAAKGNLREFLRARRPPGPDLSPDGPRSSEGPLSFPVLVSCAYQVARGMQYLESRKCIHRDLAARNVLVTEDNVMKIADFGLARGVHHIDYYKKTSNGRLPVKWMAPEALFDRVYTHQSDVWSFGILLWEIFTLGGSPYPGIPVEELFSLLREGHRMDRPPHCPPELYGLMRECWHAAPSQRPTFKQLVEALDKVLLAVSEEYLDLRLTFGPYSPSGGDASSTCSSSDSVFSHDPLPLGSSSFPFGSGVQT
Chain of VEGFR-2 (Homo sapiens, UniProt P35968) (P35968 20-1356): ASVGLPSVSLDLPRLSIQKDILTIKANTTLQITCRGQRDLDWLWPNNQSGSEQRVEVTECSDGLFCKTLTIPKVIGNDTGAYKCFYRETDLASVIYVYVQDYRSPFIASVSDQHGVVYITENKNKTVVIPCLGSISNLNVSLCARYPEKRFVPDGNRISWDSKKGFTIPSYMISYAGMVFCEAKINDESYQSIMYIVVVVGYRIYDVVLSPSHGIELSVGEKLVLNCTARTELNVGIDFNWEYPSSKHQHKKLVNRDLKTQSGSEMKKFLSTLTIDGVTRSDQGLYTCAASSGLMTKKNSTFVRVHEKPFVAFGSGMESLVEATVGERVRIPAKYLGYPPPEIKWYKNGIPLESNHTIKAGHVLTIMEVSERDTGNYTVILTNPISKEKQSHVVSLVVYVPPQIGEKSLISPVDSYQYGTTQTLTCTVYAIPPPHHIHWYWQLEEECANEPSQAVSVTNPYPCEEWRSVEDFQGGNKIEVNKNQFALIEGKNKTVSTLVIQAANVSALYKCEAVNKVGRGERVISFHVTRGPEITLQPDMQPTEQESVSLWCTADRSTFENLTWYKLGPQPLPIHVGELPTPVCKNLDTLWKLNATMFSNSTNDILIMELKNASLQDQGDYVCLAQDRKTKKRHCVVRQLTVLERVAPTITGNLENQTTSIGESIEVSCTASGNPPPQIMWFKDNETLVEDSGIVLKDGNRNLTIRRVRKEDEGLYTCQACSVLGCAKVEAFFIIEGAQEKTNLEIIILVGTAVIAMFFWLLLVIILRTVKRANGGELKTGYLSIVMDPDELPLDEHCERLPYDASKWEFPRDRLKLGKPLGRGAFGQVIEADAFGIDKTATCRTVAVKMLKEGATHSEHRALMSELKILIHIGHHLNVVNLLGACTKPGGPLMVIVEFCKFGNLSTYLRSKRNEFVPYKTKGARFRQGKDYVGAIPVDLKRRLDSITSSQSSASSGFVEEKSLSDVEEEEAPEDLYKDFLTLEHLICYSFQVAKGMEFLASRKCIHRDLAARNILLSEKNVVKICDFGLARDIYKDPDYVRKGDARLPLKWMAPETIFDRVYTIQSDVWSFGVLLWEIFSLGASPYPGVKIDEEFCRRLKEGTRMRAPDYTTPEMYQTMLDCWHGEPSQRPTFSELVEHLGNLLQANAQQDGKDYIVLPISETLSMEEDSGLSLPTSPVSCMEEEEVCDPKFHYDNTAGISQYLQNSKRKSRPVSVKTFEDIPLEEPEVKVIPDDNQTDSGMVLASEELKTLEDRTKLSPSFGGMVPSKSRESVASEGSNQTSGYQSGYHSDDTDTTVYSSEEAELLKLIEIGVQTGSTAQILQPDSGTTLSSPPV

For orientation: IC50 means the point on the concentration scale where inhibition reaches its midpoint. On to `O=C(Nc1ccc(-c2ccc3c(=O)[nH]cnc3c2)cc1)Nc1ccc(F)c(F)c1` [QDAU5, 1-(3,4-difluorophenyl)-3-(4-(4-oxo-3,4-dihydroquinazolin-7-yl)phenyl)urea], for which the IC50 in test [1] is 0.77 nM; in test [2], 3.21 nM; in test [3], above 500 nM; in test [4] it was above 500 nM; in test [5] it was 58700 nM. In test [6] (EA.hy926, 48 h, then 50 ng/mL VEGF for 10 min), the “VEGF-induced tyrosine phosphorylation of VEGFR-2” value is given as “dose-dependently decreased”. The “level of VEGFR-2” value in test [6] (VEGF-stimulated EA.hy926, 48 h) is on record as “moderately reduced”.
